Data taken from article PMC11061419, “Identification of novel small molecule inhibitors of twin arginine translocation (Tat) pathway and their effect on the control of Campylobacter jejuni in chickens” (Frontiers in Microbiology, 2024).
≈ marks a conversion by molar mass, not a printed value.

Experiments:
[1] = tested on: Campylobacter spp. (12 strains); test: Activity spectrum against Campylobacter strains at 6.25 μg/mL with 0.5 mM CuSO4; format: cell-based, Campylobacter jejuni, Campylobacter coli; details: 6.25 μg/mL SM
[2] = tested on: intracellular C. jejuni 81–176 in Caco-2 cells; test: Copper sulfate sensitivity dose–response assay in infected Caco-2 colon epithelial cells; format: cell-based, Campylobacter jejuni; details: infected Caco-2 cells, 24 h, 0.5 mM CuSO4
Procedure: The intracellular reduction in C. jejuni in the presence of a given SM (T1-T8) and 0.5 mM CuSO4 were evaluated using Caco-2 cells, as previously described ([Kumar et al., 2016]; [Deblais et al., 2019]). In brief, cells were infected for 2 h using a multiplicity of infection (MOI) of 100. Infected cells were treated with SM at a final concentration ranging between 5 and 0.315 μg/mL and incubated at 37°C for 24 h in a humidified 5% CO2 incubator. Following incubation, cells were washed once with 1X PBS, lysed with 0.1% Triton-100X, serially 10-fold diluted in 1X PBS, and plated on MH agar plate. Plates were incubated in microaerophilic conditions at 42°C for 24 h, to determine the intracellular survival. Cells not infected and not treated and cells infected and treated with 1% DMSO were used as controls (N = two independent experiments with four technical replicate for each SM).

C. jejuni 81–176 = test: Copper sulfate sensitivity dose–response assay in vitro (MIC/MBC); format: cell-based, Campylobacter jejuni; details: for MBC / MIC: Campylobacter jejuni, 0.5 mM CuSO4, head displaced; for MBC: read-out: MBC, C. jejuni (Table S5); for MIC: read-out: MIC, C. jejuni (Table S4); for C. jejuni 81–176 in vitro MBC: minimal bactericidal concentration in presence of 0.5 mM CuSO4; for C. jejuni 81–176 in vitro MIC: minimal bacteriostatic concentration in presence of 0.5 mM CuSO4
Procedure: (§1) In total, 19 SMs were two-fold serially diluted to obtain a final SM concentration ranging from 6.25 to 0.012 μg/mL. C. jejuni 81–176 was then treated with a determined concentration of SM, as described in the copper sensitivity assay. […] The lowest bactericidal SM concentration was considered the MBC (no increase in OD600 over time and no viable cells were recovered on agar plate after challenge) (N = 3 replicates per SM). […] However, these SMs were two-fold serially diluted to obtain a final SM concentration ranging from 5 μg to 0.0625 μg for testing (N = two independent experiments with four technical replicate for each SM).

[3] = tested on: Commensal/beneficial gut bacteria (n = 7); test: Activity spectrum against commensal/beneficial gut bacteria at 6.25 μg/mL; format: cell-based; details: 6.25 μg/mL SM; for Commensal/beneficial gut bacteria inhibited at 6.25 μg/mL (species): Ef Enterococcus faecalis, Lb Levilactobacillus brevis, LGG Lacticaseibacillus rhamnosus GG
Procedure: A similar experiment was performed with seven commensal/beneficial gut bacteria to determine species specificity of these SMs. In brief, an overnight suspension was normalized at 0.05 OD600 using the appropriate medium and challenged with 6.25 μg/mL of SM. Details about the strains and their growing conditions are shown in Supplementary Table S1. Medium alone and 1% DMSO were used as controls (N = 3 replicates per SM).

C. jejuni Au-44 = test: Copper sulfate sensitivity dose–response assay in vitro (MIC/MBC); format: cell-based; details: Campylobacter jejuni; for MIC: AU44, read-out: MIC, Au-44 (Table S4); for MBC: AU44, 0.5 mM CuSO4, read-out: MBC, Au-44 (Table S5)
Procedure: (§2) Campylobacter jejuni 81–176 was the primary model strain used for the selection of the potential Tat-dependent inhibitors by high-throughput screening. C. jejuni 81–176 is resistant to 0.5 and 1 mM CuSO4 (Supplementary Figure S1). C. jejuni 81–176 tatC knockout mutant (C. jejuni ΔtatC) was used to confirm the Tat-dependent inhibitory effect of the selected SM. C. jejuni ΔtatC is susceptible to 0.5 mM and higher of CuSO4 ([Rajashekara et al., 2009]). The specificity of the Tat-dependent inhibitors was also tested on 11 additional Campylobacter strains (C. coli ATCC33559 and 10 other C. jejuni strains isolated from chickens) and 7 commensal/beneficial bacteria (Supplementary Table S1). The […] (Au-13, Au-20, Au-38, Au-39, Au-47, Au-50, Au-24, Au-32, Au-44, and Au-45) were selected based on their single nucleotide polymorphism (SNP)-type and percent of prevalence in chickens ([Merchant-Patel et al., 2008]; [Kumar et al., 2016]). Additional details about the bacterial strains are shown in Supplementary Table S1.
as §1

C. jejuni Au-20 = test: as above; format: cell-based; details: Campylobacter jejuni; for MIC: AU20, read-out: MIC, Au-20 (Table S4); for MBC: AU20, 0.5 mM CuSO4, read-out: MBC, Au-20 (Table S5)
Procedure: as §2, §1

C. jejuni Au-47 = test: as above; format: cell-based; details: Campylobacter jejuni; for MIC: AU47, read-out: MIC, Au-47 (Table S4); for MBC: AU47, 0.5 mM CuSO4, read-out: MBC, Au-47 (Table S5)
Procedure: as §2, §1

C. jejuni Au-50 = test: as above; format: cell-based; details: Campylobacter jejuni; for MIC: AU50, read-out: MIC, Au-50 (Table S4); for MBC: AU50, 0.5 mM CuSO4, read-out: MBC, Au-50 (Table S5)
Procedure: as §2, §1

C. jejuni Au-13 = test: as above; format: cell-based; details: Campylobacter jejuni; for MIC: AU13, read-out: MIC, Au-13 (Table S4); for MBC: AU13, 0.5 mM CuSO4, read-out: MBC, Au-13 (Table S5)
Procedure: as §2, §1

C. jejuni Au-45 = test: as above; format: cell-based; details: Campylobacter jejuni; for MIC: AU45, read-out: MIC, Au-45 (Table S4); for MBC: AU45, 0.5 mM CuSO4, read-out: MBC, Au-45 (Table S5)
Procedure: as §2, §1

C. jejuni Au-38 = test: as above; format: cell-based; details: Campylobacter jejuni; for MIC: AU38, read-out: MIC, Au-38 (Table S4); for MBC: AU38, 0.5 mM CuSO4, read-out: MBC, Au-38 (Table S5)
Procedure: as §2, §1

C. jejuni Au-32 = test: as above; format: cell-based; details: Campylobacter jejuni; for MIC: AU32, read-out: MIC, Au-32 (Table S4); for MBC: AU32, 0.5 mM CuSO4, read-out: MBC, Au-32 (Table S5)
Procedure: as §2, §1

C. jejuni Au-24 = test: as above; format: cell-based; details: Campylobacter jejuni; for MIC: AU24, read-out: MIC, Au-24 (Table S4); for MBC: AU24, 0.5 mM CuSO4, read-out: MBC, Au-24 (Table S5)
Procedure: as §2, §1

C. coli ATCC33559 = test: as above; format: cell-based; details: Campylobacter coli; for MIC: ATCC33559, read-out: MIC, C. coli (Table S4); for MBC: ATCC33559, 0.5 mM CuSO4, read-out: MBC, C. coli (Table S5)
Procedure: as §2, §1

C. jejuni Au-39 = test: as above; format: cell-based; details: Campylobacter jejuni; for MIC: AU39, read-out: MIC, Au-39 (Table S4); for MBC: AU39, 0.5 mM CuSO4, read-out: MBC, Au-39 (Table S5)
Procedure: as §2, §1

FDH = details: 1 mM of azide; ref Davies, 2017; cited from earlier work

Structure (SMILES)	Growth inhibition at 6.25 μg/mL, Campylobacter spp. (strains inhibited/tested) [1]	MBC (C. jejuni 81–176) [µg/mL]	MIC (C. jejuni 81–176) [µg/mL]	C. jejuni 81–176 in vitro MBC (C. jejuni 81–176) [µg/mL]	C. jejuni 81–176 in vitro MIC (C. jejuni 81–176) [µg/mL]	Growth inhibition at 6.25 μg/mL, Commensal/beneficial gut bacteria (strains inhibited/tested) [3]	MIC (C. jejuni Au-44) [µg/mL]	MBC (C. jejuni Au-44) [µg/mL]	MIC (C. jejuni Au-20) [µg/mL]	MBC (C. jejuni Au-20) [µg/mL]	MIC (C. jejuni Au-47) [µg/mL]	MBC (C. jejuni Au-47) [µg/mL]	MIC (C. jejuni Au-50) [µg/mL]	MBC (C. jejuni Au-50) [µg/mL]	MIC (C. jejuni Au-13) [µg/mL]	MBC (C. jejuni Au-13) [µg/mL]	MIC (C. jejuni Au-45) [µg/mL]	MBC (C. jejuni Au-45) [µg/mL]	MIC (C. jejuni Au-38) [µg/mL]	MBC (C. jejuni Au-38) [µg/mL]	also measured
CN(C)c1ccc(C(=O)Nc2ccc(CN3CCS(=O)(=O)CC3)cc2)cc1 [T3]	12/12	> 5	0.04 (≈ 0.103 µM)	>5	0.04	2/7	6.25 (≈ 16.1 µM)	> 5	6.25 (≈ 16.1 µM)	> 5	6.25 (≈ 16.1 µM)	> 5	6.25 (≈ 16.1 µM)	> 5	6.25 (≈ 16.1 µM)	> 5	6.25 (≈ 16.1 µM)	> 5	6.25 (≈ 16.1 µM)	> 5	C. jejuni 81–176 MBC in Caco2 cells [2]: 5 µg/mL; Commensal/beneficial gut bacteria inhibited at 6.25 μg/mL (species) [3]: LGG and Ef; MIC (C. jejuni Au-32): 6.25 µg/mL (≈ 16.1 µM); MBC (C. jejuni Au-32): > 5 µg/mL; MIC (C. jejuni Au-24): 6.25 µg/mL (≈ 16.1 µM); MBC (C. jejuni Au-24): > 5 µg/mL; MIC (C. coli ATCC33559): 1 µg/mL (≈ 2.58 µM); MBC (C. coli ATCC33559): > 5 µg/mL; MIC (C. jejuni Au-39): 6.25 µg/mL (≈ 16.1 µM); MBC (C. jejuni Au-39): > 5 µg/mL
CCOC(=O)C1CCN(CC(=O)Nc2cccc3cccnc23)CC1 [T5]	12/12	0.04 (≈ 0.117 µM)	0.01 (≈ 0.0293 µM)	0.04	0.01	1/7	2.5 (≈ 7.32 µM)	5 (≈ 14.6 µM)	2.5 (≈ 7.32 µM)	5 (≈ 14.6 µM)	2.5 (≈ 7.32 µM)	5 (≈ 14.6 µM)	5 (≈ 14.6 µM)	> 5	0.62 (≈ 1.82 µM)	1.24 (≈ 3.63 µM)	5 (≈ 14.6 µM)	> 5	2.5 (≈ 7.32 µM)	5 (≈ 14.6 µM)	Commensal/beneficial gut bacteria inhibited at 6.25 μg/mL (species) [3]: Ef; MIC (C. jejuni Au-32): 5 µg/mL (≈ 14.6 µM); MBC (C. jejuni Au-32): > 5 µg/mL; MIC (C. jejuni Au-24): 2.5 µg/mL (≈ 7.32 µM); MBC (C. jejuni Au-24): 5 µg/mL (≈ 14.6 µM); MIC (C. coli ATCC33559): 0.02 µg/mL (≈ 0.0586 µM); MBC (C. coli ATCC33559): 0.04 µg/mL (≈ 0.117 µM); MIC (C. jejuni Au-39): 5 µg/mL (≈ 14.6 µM); MBC (C. jejuni Au-39): > 5 µg/mL
CCc1ccnc(NS(=O)(=O)c2ccc(C)c(Cl)c2)c1 [T4]	12/12	> 5	0.01 (≈ 0.0322 µM)	>5	0.01	1/7	6.25 (≈ 20.1 µM)	> 5	0.62 (≈ 1.99 µM)	> 5	0.62 (≈ 1.99 µM)	> 5	0.31 (≈ 0.997 µM)	> 5	0.62 (≈ 1.99 µM)	> 5	6.25 (≈ 20.1 µM)	> 5	6.25 (≈ 20.1 µM)	> 5	Commensal/beneficial gut bacteria inhibited at 6.25 μg/mL (species) [3]: Ef; MIC (C. jejuni Au-32): 6.25 µg/mL (≈ 20.1 µM); MBC (C. jejuni Au-32): > 5 µg/mL; MIC (C. jejuni Au-24): 6.25 µg/mL (≈ 20.1 µM); MBC (C. jejuni Au-24): > 5 µg/mL; MIC (C. coli ATCC33559): 6.25 µg/mL (≈ 20.1 µM); MBC (C. coli ATCC33559): > 5 µg/mL; MIC (C. jejuni Au-39): 6.25 µg/mL (≈ 20.1 µM); MBC (C. jejuni Au-39): > 5 µg/mL
[N-]=[N+]=[N-] [azide]																					inhibition of FDH activity (FDH): 30%
CC(C)n1c(S)nc2c1c(=O)[nH]c(=O)n2C [T6]	12/12	2.5 (≈ 10.4 µM)	1.25 (≈ 5.2 µM)	2.5	1.25	0/7	1.25 (≈ 5.2 µM)	2.5 (≈ 10.4 µM)	1.25 (≈ 5.2 µM)	2.5 (≈ 10.4 µM)	1.25 (≈ 5.2 µM)	2.5 (≈ 10.4 µM)	1.25 (≈ 5.2 µM)	2.5 (≈ 10.4 µM)	1.25 (≈ 5.2 µM)	2.5 (≈ 10.4 µM)	1.25 (≈ 5.2 µM)	2.5 (≈ 10.4 µM)	1.25 (≈ 5.2 µM)	2.5 (≈ 10.4 µM)	MIC (C. jejuni Au-32): 1.25 µg/mL (≈ 5.2 µM); MBC (C. jejuni Au-32): 2.5 µg/mL (≈ 10.4 µM); MIC (C. jejuni Au-24): 1.25 µg/mL (≈ 5.2 µM); MBC (C. jejuni Au-24): 2.5 µg/mL (≈ 10.4 µM); MIC (C. coli ATCC33559): 1.25 µg/mL (≈ 5.2 µM); MBC (C. coli ATCC33559): 2.5 µg/mL (≈ 10.4 µM); MIC (C. jejuni Au-39): 1.25 µg/mL (≈ 5.2 µM); MBC (C. jejuni Au-39): 2.5 µg/mL (≈ 10.4 µM)
